The values below come from patent US5955508A, “Method for the enhancement of lymphocyte activity against opportunistic microbial pathogens” (priority 1996, dated 1999).

Structures are written as SMILES. Entries after “also recorded” stand apart in the source; their conditions may differ.

One test has as its system CD4+ lymphocytes. Nature of the test: Con A induced lymphoproliferation of PBMC (CD4+ lymphocytes). The settings on record: for comparison of 5 ng/ml with 50 ng/ml d-FEN: 5 ng/ml vs 50 ng/ml. Type of test: cell-based, human. The text has this: (§1) The T lymphocytes analyzed were obtained from 20 HIV+ patients (9 females and 11 males, 25-48 years of age). The patients were diagnosed as being HIV+ within the past 0.5-9 years, and 15 are being treated with antiviral drugs. The subjects' study identification number (indicates the order in which bloods were drawn), CD4+ and CD8+ counts (determined March, 1996, as part of the present study), age, sex, date of diagnosis, and pharmacotherapy are provided in Table 1.
The patients fell into one of three groups (Groups A, B and C) based on their CD4+ cell counts (the number of T helper cells/μL blood): 8 of the HIV+ patients had normal (or above normal) CD4+ levels (normal range 550-1500/μL); 4 had levels between 200-499/μL; and, 7 had CD4+ counts equal to or below 200/μL. This latter group of patients by definition have AIDS (see Table 41-3 from K. J. Ryan (Ed.), Sherris Medical Microbiology, Third Edition, Appleton & Lange:Norwalk, Conn., 1994, p. 547). These patients, moreover, have had recurrent candidiasis and other opportunistic infections which have become increasingly difficult to manage. All of the patients' CD8+ cell (cytotoxic T lymphocytes) counts were within or above normal range (300-1000/μL). We were unable to obtain enough lymphocytes from one patient (#4) to analyze their antifungal activity.
Peripheral blood (40 ml) was drawn (Mar. 29-30, 1996) from the patients on a "first come, first serve" basis when they arrived at the Ponce Center for Diagnosis and Treatment (Dr. Hiram Valazquez, Medical Director) for their monthly checkup and who volunteered their blood for experimental analysis. In addition, blood was drawn from 4 healthy HIV- volunteers in order to study their lymphoproliferation response to Con A. The lymphocytes were isolated and processed as detailed below.
(§2) The experimental protocol for this project is illustrated in Table A. Note that the cultures were exposed to two doses (5 and 50 ng/ml) of d-FEN in the mitogenesis assays, whereas only one dose (50 ng/ml) was used in the antifungal and cytokine release assays.
Cell Proliferation Analysis. Lymphoid cell suspensions were cultured in microtiter plates (Corning Glass Works, Corning, N.Y.) in the presence of 3.0 μg/ml Con-A (Pharmacia, Uppsala, Sweden) for 3 and 4 days at 37° C. d-FEN (5 and 50 ng/ml) was added the second day of culture. The cells were cultured at 2×10^5 /well in RPMI 1640 with 1% fetal bovine serum. The cells then were pulsed for 6.0 h with 1.0 μCi of [^3 H]-thymidine (DuPont-New England Nuclear Research, Boston, Mass.), harvested, and [^3 H]-thymidine incorporation determined with a liquid scintillation counter. The data are reported as a percent increase in the stimulation in dextrofenfluramine values.
(§3) The data were analyzed by a one- or two-way analysis of variance (ANOVA) with repeated measures where appropriate ([…] version 1; Jandel, San Rafael, Calif.). Significant main effects were subjected to post hoc analysis using the Student-Newman Keuls All Pairwise Multiple Comparisons test or the Mann-Whitney U test.
^A The stimulatory effect of dFEN is expressed as a percent increase
in the stimulation index of PBMCs cultured with the two doses of dFEN
versus that cultured without dFEN. The data represent the greatest
stimulation that occurred after the lymphocytes had been in culture for 3
or 4 days. The mitogenic activity of the PBMC (CD4+ lymphocytes) index of
stimulation was calculated as follows: […]

In the next test the test system is IL-2 in CD8+ T cells. Nature of the test: IL-2 production by CD8+ T cells, flow cytometry. The format is cell-based, human. The settings on record: for % Positive Cells (IL-2 immunopositive), d-FEN / IL-2 Titer, d-FEN: Mean ± SEM.
Excerpt: as §1, §2
Cytokine Profiles. Peripheral mononuclear cells were isolated by the Ficoll-Hypaque method and washed twice with RPMI-1640 medium. Cell suspensions were made at 1×10^6 /ml and the cells activated with interleukin-2 (IL-2) for 18 h or 4 days at 37° C. under 5% CO^2 +95% air. Monensin (1 nM) then was added to the culture to block secretion of cytokines, and the cultures allowed to continue for another 3 h. The cells were washed twice with PBS+1% fetal calf serum (FCS) with 0.1% saponin+0.1% sodium azide, then washed once with PBS-1% FCS and stained with anti-cytokine MAb-FL conjugate for 30 min. Following two washes, the cells were analyzed by flow cytometry for production of IL-2, IFN-γ and TNF-α. The MAbs-FL conjugates were obtained from Pharmingen (San Diego, Calif.). Potential effects of on cytokine production were evaluated (a) as increases in the percentage of a T cell subset which produce the respective cytokine; and, (b) as increases in the amount of cytokine produced by each subset. The latter were analyzed as a shift of the cytokine histograms.
as §3
(A flow cytometer gives signals particle by particle.)

The mark [1] stands for this setting: 50 ng/ml, CD8+ T cells, non-AIDS HIV+.

Consider `CCN[C@@H](C)Cc1cccc(C(F)(F)F)c1` [d-FEN], for which the “mitogenesis of human controls and AIDS patients vs non-AIDS HIV+ patients” value with CD4+ lymphocytes (5 ng/ml d-FEN) is given as “greater mitogenesis in the presence of 5 ng/ml d-FEN than the non-AIDS HIV+ patients”. Also, the “comparison of 5 ng/ml with 50 ng/ml d-FEN” value in the test on CD4+ lymphocytes is “lymphocytes obtained from human control and AIDS subjects respond better in vitro to a low (5 ng/ml) than to a high (50 ng/ml) dose; also recorded: greater lymphoproliferation in AIDS derived lymphocytes than 50 ng/ml”; in the test with CD4+ lymphocytes (listed as dextrofenfluramine), “more effective than 50 ng/ml”. The “mitogenesis of non-AIDS HIV+ patients (Groups A+B) vs AIDS group” value in the test with CD4+ lymphocytes (50 ng/ml d-FEN) was “greater mitogenesis than the AIDS group (Group C)”. For the same compound, the “dose effect, two way ANOVA” value in the test on CD4+ lymphocytes (5 vs 50 ng/ml, p=0.15) was “did not reach significance”. Also, the activation at 0.005 µg/mL in the test on CD4+ lymphocytes (Homo sapiens, Lymphocyte, 5 ng/ml d-FEN, Groups A + B (non-AIDS HIV+), Con A, read-out: Increase in Index of Stimulation, Mean ± SEM) came out at 17 ± 8%. Also, the activation at 0.05 µg/mL with CD4+ lymphocytes (Homo sapiens, Lymphocyte, 50 ng/ml d-FEN, Groups A + B (non-AIDS HIV+), Con A, read-out: Increase in Index of Stimulation, Mean ± SEM) amounted to 50 ± 8%; in the test on IL-2 in CD8+ T cells (Homo sapiens, T-cell, read-out: percent increase of IL-2 titer over VEH) it was 40%. The “proliferation, AIDS patient #15” value in the test with CD4+ lymphocytes (no detectable CD4+ cells) is recorded as “did not show any proliferation”. The “% Positive Cells (IL-2 immunopositive), d-FEN” value is 18 ± 4% in the test with IL-2 in CD8+ T cells (50 ng/ml, CD8+ T cells, AIDS) and 36 ± 3% in the test on IL-2 in CD8+ T cells (setting [1]). Also, the “IL-2 Titer, d-FEN” value in the test on IL-2 in CD8+ T cells (50 ng/ml, CD8+ T cells, AIDS) was 147 ± 34 geometric mean channel fluorescence; with IL-2 in CD8+ T cells (setting [1]), 220 ± 28 geometric mean channel fluorescence. Moreover, the “effect on IL-2 titer in words” value in the test with IL-2 in CD8+ T cells (50 ng/ml, CD8+ T cells, non-AIDS) is recorded as “not from the non-AIDS patients”.
